Assay results from ChEMBL document CHEMBL5143732 (J Med Chem, 2022).
Values after ≈ are worked out from the molar mass of the structure shown. Active and inactive are the calls of the source. The rule behind the calls is not given here.

Assays:
[1] = Observed volume of distribution at steady state in ICR (CD-1) mouse at 1 mg/kg, iv measured upto 24 hrs; assay type: ADME, organism-based; conditions: in vivo, read-out: Vdss
[2] = Observed AUC infinity in ICR (CD-1) mouse at 1 mg/kg, iv measured upto 24 hrs; assay type: ADME, organism-based; set-up: dose 1 mg/kg, time < 24 hrs, route iv; conditions: in vivo; for AUC(0-inf): ICR (CD-1)
[3] = Elimination half life in ICR (CD-1) mouse at 1 mg/kg, iv measured upto 24 hrs; assay type: ADME, organism-based; conditions: in vivo, read-out: beta t1/2 (converted)
Pichia kudriavzevii [4] = experiment: Antifungal activity against Candida krusei ATCC 6258 assessed as inhibition of fungal growth measured after 48 hrs by CLSI based agar dilution method; assay type: functional
[5] = AUClast in ICR (CD-1) mouse at 1 mg/kg, iv measured upto 24 hrs; assay type: ADME, organism-based; set-up: dose 1 mg/kg, time < 24 hrs, route iv; conditions: in vivo; for AUC(0-t) at 24 h: ICR (CD-1)
Candida tropicalis [6] = experiment: Antifungal activity against Candida tropicalis assessed as inhibition of fungal growth measured after 48 hrs by CLSI based agar dilution method; assay type: functional
[7] = Observed MRT infinity in ICR (CD-1) mouse at 1 mg/kg, iv measured upto 24 hrs; assay type: ADME, organism-based; conditions: in vivo
[8] = Hemolytic activity in human RBC measured after 1 hr; assay type: toxicity, cell-based, Erythrocyte; conditions: red blood cells (erythrocytes)
Cryptococcus neoformans [9] = experiment: Antifungal activity against Cryptococcus neoformans ATCC 32609 assessed as inhibition of fungal growth measured after 48 hrs by CLSI based agar dilution method; assay type: functional
Candida albicans [10] = experiment: Antifungal activity against Candida albicans assessed as inhibition of fungal growth measured after 48 hrs by CLSI based agar dilution method; assay type: functional
Pichia kudriavzevii [11] = experiment: Antifungal activity against Candida krusei assessed as inhibition of fungal growth measured after 48 hrs by CLSI based agar dilution method; assay type: functional
[12] = Observed clearance in ICR (CD-1) mouse at 1 mg/kg, iv measured upto 24 hrs; assay type: ADME, organism-based; set-up: dose 1 mg/kg, time < 24 hrs, route iv; conditions: in vivo
Candida parapsilosis [13] = experiment: Antifungal activity against Candida parapsilosis assessed as inhibition of fungal growth measured after 48 hrs by CLSI based agar dilution method; assay type: functional; conditions: Lodderomyces parapsilosis
Lipid bilayer [14] = experiment: Induction of membrane disruption in inner membrane mimic POPC/ergosterol (10:1) large unilamellar vesicles assessed as change in liposomal integrity by transmission electron microscopic analysis; assay type: cell membranes
Lipid bilayer [15] = experiment: Induction of membrane disruption in inner membrane mimic POPC/ergosterol (10:1) large unilamellar vesicles assessed as change in morphology by transmission electron microscopic analysis; assay type: cell membranes
Candida albicans [16] = experiment: Antifungal activity against Candida albicans ATTCC 14053 infected in SPF Kunming mouse assessed as increase in mouse survival pre-infected for 1 hr followed by compound addition and measured after 7 to 14 days; assay type: functional; conditions: time 7-14 day
[17] = Acute toxicity in iv dosed SPF ICR mouse assessed as maximum tolerated measured for 14 days; assay type: organism-based; conditions: in vivo, dose 30 mg/kg, time 14 day
[18] = Therapeutic index ratio of MTD for acute toxicity in iv dosed SPF ICR mouse to ED50 for antifungal activity against Candida albicans ATTCC 14053 infected in SPF kunming mouse; assay type: organism-based; conditions: in vivo, read-out: TI
Cryptococcus neoformans [19] = experiment: Potency index, ratio of AMD MIC to test compound MIC for antifungal activity against Cryptococcus neoformans; assay type: functional
Candida tropicalis [20] = experiment: Potency index, ratio of AMD MIC to test compound MIC for antifungal activity against Candida tropicalis; assay type: functional
Nakaseomyces glabratus = experiment: Potency index, ratio of AMD MIC to test compound MIC for antifungal activity against Candida glabrata; assay type: functional
[21] = Acute toxicity in SPF ICR mouse assessed as prostration upto 7.5 mg/kg, iv administered on day 1 and measured for 14 days; assay type: organism-based; conditions: in vivo, 336 h, time 14 day
[22] = Aqueous solubility of compound at pH 6.8; assay type: physicochemical; conditions: buffer
[23] = Acute toxicity in SPF ICR mouse assessed as prostration at 15 to 30 mg/kg, iv administered on day 1 and measured for 14 days; assay type: organism-based; conditions: in vivo, 336 h, dose 15-30 mg/kg, time 14 day
[24] = Acute toxicity in SPF ICR mouse assessed as polypnea upto 7.5 mg/kg, iv administered on day 1 and measured for 14 days; assay type: organism-based; conditions: in vivo, 336 h, time 14 day
[25] = Acute toxicity in SPF ICR mouse assessed as polypnea at 15 to 30 mg/kg, iv administered on day 1 and measured for 14 days; assay type: organism-based; conditions: in vivo, 336 h, dose 15-30 mg/kg, time 14 day
Candida parapsilosis [26] = experiment: Potency index, ratio of AMD MIC to test compound MIC for antifungal activity against Candida parapsilosis; assay type: functional
Pichia kudriavzevii [27] = experiment: Potency index, ratio of AMD MIC to test compound MIC for antifungal activity against Candida krusei; assay type: functional
Candida albicans [28] = experiment: Potency index, ratio of AMD MIC to test compound MIC for antifungal activity against Candida albicans; assay type: functional
[29] = route iv, dose 1 mg/kg, time < 24 hrs, read-out: CL

Vd [1] [L/kg] | AUC(0-inf) [2] [ng·h/mL] | half-life [3] [h] | MIC (Pichia kudriavzevii [4]) [µg/mL] | AUC(0-t) at 24 h [5] [ng·h/mL] | MIC (Candida tropicalis [6]) [µg/mL] | MRT inf [7] [h] | MIC (Cryptococcus neoformans [9]) [µg/mL] | MIC (Candida albicans [10]) [µg/mL] | MIC (Pichia kudriavzevii [11]) [µg/mL] | clearance [12, 29] [mL/min/kg] | MIC (Candida parapsilosis [13]) [µg/mL] | Compound | HC50 at 1 h [8] [µM] | ED50 (Candida albicans [16]) [mg/kg] | MTD at 336 h [17] [mg/kg] | further results
2.48 | 6210 | 11.2 | 8 (≈ 7.22 µM) | 4890 | 1 (≈ 0.903 µM) | 15.3 | 0.25 (≈ 0.226 µM) | 0.5 (≈ 0.452 µM) | 0.5 (≈ 0.452 µM) | 2.7 | 0.5 (≈ 0.452 µM) | C[C@@H]1[C@H](O)[C@@H](C)/C=C/C=C/C=C/C=C/C=C/C=C/C=C/[C@H](O[C@@H]2O[C@H](C)[C@@H](O)[C@H](NC(=O)CCN)[C@@H]2O)C[C@@H]2O[C@](O)(C[C@@H](O)C[C@@H](O)[C@H](O)CC[C@@H](O)C[C@@H](O)CC(=O)O[C@H]1C)C[C@H](O)[C@H]2C(=O)N1CCN(CCO)CC1 | 24.4 |  |  | 
3.06 | 3440 | 7.72 | 8 (≈ 7.32 µM) | 3060 | 0.25 (≈ 0.229 µM) | 10.5 | 0.25 (≈ 0.229 µM) | 0.25 (≈ 0.229 µM) | 0.25 (≈ 0.229 µM) | 4.85 | 0.5 (≈ 0.457 µM) | C[C@@H]1[C@H](O)[C@@H](C)/C=C/C=C/C=C/C=C/C=C/C=C/C=C/[C@H](O[C@@H]2O[C@H](C)[C@@H](O)[C@H](NC(=O)CN)[C@@H]2O)C[C@@H]2O[C@](O)(C[C@@H](O)C[C@@H](O)[C@H](O)CC[C@@H](O)C[C@@H](O)CC(=O)O[C@H]1C)C[C@H](O)[C@H]2C(=O)N1CCN(CCO)CC1 | 30.6 |  |  | 
1.44 | 17700 | 16.4 | 4 (≈ 3.52 µM) | 10700 | 1 (≈ 0.881 µM) | 25.4 | 1 (≈ 0.881 µM) | 1 (≈ 0.881 µM) | 1 (≈ 0.881 µM) | 0.95 | 1 (≈ 0.881 µM) | CNCC(=O)N[C@@H]1[C@H](O)[C@H](O[C@H]2/C=C/C=C/C=C/C=C/C=C/C=C/C=C/[C@H](C)[C@@H](O)[C@@H](C)[C@H](C)OC(=O)C[C@H](O)C[C@H](O)CC[C@@H](O)[C@H](O)C[C@H](O)C[C@]3(O)C[C@H](O)[C@@H](C(=O)N4CCN(C(C)(C)CO)CC4)[C@H](C2)O3)O[C@H](C)[C@H]1O | 50.7 |  |  | 
 |  |  |  |  |  |  |  |  |  |  |  | CNCC(=O)N[C@@H]1[C@H](O)[C@H](O[C@H]2/C=C/C=C/C=C/C=C/C=C/C=C/C=C/[C@H](C)[C@@H](O)[C@@H](C)[C@H](C)OC(=O)C[C@H](O)C[C@H](O)CC[C@@H](O)[C@H](O)C[C@H](O)C[C@]3(O)C[C@H](O)[C@@H](C(=O)NCCN)[C@H](C2)O3)O[C@H](C)[C@H]1O [listing 1 of 2 here] |  |  |  | Activity (Lipid bilayer [14]): Active; Activity (Lipid bilayer [15]): Active
1.37 | 18300 | 18.2 | 0.5 (≈ 0.489 µM) | 11500 | 0.03 (≈ 0.0293 µM) | 24.9 | < 0.008 | < 0.008 | 0.06 (≈ 0.0586 µM) | 0.913 | 0.015 (≈ 0.0147 µM) | C[C@@H]1[C@H](O)[C@@H](C)/C=C/C=C/C=C/C=C/C=C/C=C/C=C/[C@H](O[C@@H]2O[C@H](C)[C@@H](O)[C@H](NC(=O)CN)[C@@H]2O)C[C@@H]2O[C@](O)(C[C@@H](O)C[C@@H](O)[C@H](O)CC[C@@H](O)C[C@@H](O)CC(=O)O[C@H]1C)C[C@H](O)[C@H]2C(=O)NCCN | 18.2 |  |  | 
 |  |  | 2 (≈ 1.81 µM) |  | 0.5 (≈ 0.452 µM) |  | 0.03 (≈ 0.0271 µM) | 0.125 (≈ 0.113 µM) | 0.25 (≈ 0.226 µM) |  | 0.5 (≈ 0.452 µM) | CNCC(=O)N[C@@H]1[C@H](O)[C@H](O[C@H]2/C=C/C=C/C=C/C=C/C=C/C=C/C=C/[C@H](C)[C@@H](O)[C@@H](C)[C@H](C)OC(=O)C[C@H](O)C[C@H](O)CC[C@@H](O)[C@H](O)C[C@H](O)C[C@]3(O)C[C@H](O)[C@@H](C(=O)N4CCN(CCO)CC4)[C@H](C2)O3)O[C@H](C)[C@H]1O | 15.1 |  |  | 

Compound | Vd [1] [L/kg] | AUC(0-inf) [2] [ng·h/mL] | half-life [3] [h] | MIC (Pichia kudriavzevii [4]) [µg/mL] | AUC(0-t) at 24 h [5] [ng·h/mL] | MIC (Candida tropicalis [6]) [µg/mL] | MRT inf [7] [h] | MIC (Cryptococcus neoformans [9]) [µg/mL] | MIC (Candida albicans [10]) [µg/mL] | MIC (Pichia kudriavzevii [11]) [µg/mL] | clearance [12, 29] [mL/min/kg] | MIC (Candida parapsilosis [13]) [µg/mL] | HC50 at 1 h [8] [µM] | ED50 (Candida albicans [16]) [mg/kg] | MTD at 336 h [17] [mg/kg] | further results
C[C@@H]1[C@H](O)[C@@H](C)/C=C/C=C/C=C/C=C/C=C/C=C/C=C/[C@H](O[C@@H]2O[C@H](C)[C@@H](O)[C@H](N)[C@@H]2O)C[C@@H]2O[C@](O)(C[C@@H](O)C[C@@H](O)[C@H](O)CC[C@@H](O)C[C@@H](O)CC(=O)O[C@H]1C)C[C@H](O)[C@H]2C(=O)O [AMPHOTERICIN B] | 6.42 |  | 19.2 |  |  | 1 (≈ 1.08 µM) | 28.8 |  | 0.5 (≈ 0.541 µM) |  |  | 0.25 (≈ 0.271 µM) | 4.13 | 1.08 | 2.01 | AUC ([2]; 24 h): 4476 ng·h/mL; AUClast ([5]; 24 h): 2488 ng·h/mL; clearance ([12]; iv, 1 mg/kg, read-out: AUC): 4.02 mL/min/kg
C[C@@H]1[C@H](O)[C@@H](C)/C=C/C=C/C=C/C=C/C=C/C=C/C=C/[C@H](O[C@@H]2O[C@H](C)[C@@H](O)[C@H](N)[C@@H]2O)C[C@@H]2O[C@](O)(C[C@@H](O)C[C@@H](O)[C@H](O)CC[C@@H](O)C[C@@H](O)CC(=O)O[C@H]1C)C[C@H](O)[C@H]2C(=O)NCCN | 1.33 | 18900 | 17.5 |  | 11600 |  | 25.3 |  |  |  | 0.896 |  |  | 0.32 | 7.5 | selectivity ratio [18]: 23.4
CNCC(=O)N[C@@H]1[C@H](O)[C@H](O[C@H]2/C=C/C=C/C=C/C=C/C=C/C=C/C=C/[C@H](C)[C@@H](O)[C@@H](C)[C@H](C)OC(=O)C[C@H](O)C[C@H](O)CC[C@@H](O)[C@H](O)C[C@H](O)C[C@]3(O)C[C@H](O)[C@@H](C(=O)NCCN)[C@H](C2)O3)O[C@H](C)[C@H]1O [listing 2 of 2 here] | 0.917 | 31800 | 20.5 | 0.125 (≈ 0.121 µM) | 17600 | 0.03 (≈ 0.0289 µM) | 29.5 | < 0.008 | < 0.008 | 0.25 (≈ 0.241 µM) | 0.53 | 0.03 (≈ 0.0289 µM) | 105 | 0.21 | 7.5 | Ratio (Cryptococcus neoformans [19]): 125; Ratio (Candida tropicalis [20]): 33; Ratio (Nakaseomyces glabratus): 66; Activity [21]: Non-Toxic; solubility [22]: 58.5 µg/mL (≈ 56.4 µM); Activity [23]: Toxic; selectivity ratio [18]: 35.7; Activity [24]: Non-Toxic; Activity [25]: Toxic; Ratio (Candida parapsilosis [26]): 16; Ratio (Pichia kudriavzevii [27]): 8; Ratio (Candida albicans [28]): 60
